Legend:
[1] = test system: mice; conditions: mouse, in vivo, sc; cited from earlier work
[2] = test system: spider mites (Tetrantychus strain), Normal Strain; conditions: in vivo
[3] = test system: spider mites (Tetrantychus strain), Resistant Strain; conditions: in vivo

| SMILES | LD50 to mice [1] | LD50, Normal Strain [2] | LD50, Resistant Strain [3] |
| --- | --- | --- | --- |
| CN(C)C(=O)Oc1cccc([N+](C)(C)C)c1 [neostigmine] | 0.42 mg/kg |  |  |
| CCOC(=O)CC(SP(=S)(OC)OC)C(=O)OCC (stereo not drawn) [malathion] |  | 50 μg/8 cm^2 | 40 μg/8 cm^2 |
